Reference: patent US12065442B2, “Tropomyosin receptor kinase (TRK) degradation compounds and methods of use” (Cullgen (Shanghai), Inc., priority 2018, dated 2024)
pIC50: −log10 of the molar value. Entries after “also recorded” stand apart in the source; their conditions may differ.

How the values were obtained:
[1] = test system: monoiodoacetate-induced osteoarthritis; assay: Monoiodoacetate-induced osteoarthritis pain model in guinea pigs; type: in vivo; conditions: 20 mg/kg i.p., single dose, 6 hours following treatment (FIG. 16B)
TPM3-TRKA fusion protein = TPM3-TRKA fusion protein (Homo sapiens, UniProt P04629+P06753+Q96SW2); assay: Immunoblotting of TPM3-TRKA in KM12 subcutaneous xenograft tumors; type: in vivo, Athymic nude mice; design: The resulted chimeric proteins always retain the kinase domain of TRK proteins; TPM3 (N-terminal fusion partner, natural gene fusion); from tissue; host or cells: KM12 subcutaneous xenograft tumors in athymic nude mice; conditions: intraperitoneal or oral administration, eight hours after administration (FIG. 10)
Chain of TPM3-TRKA fusion protein (P06753+P04629 fused): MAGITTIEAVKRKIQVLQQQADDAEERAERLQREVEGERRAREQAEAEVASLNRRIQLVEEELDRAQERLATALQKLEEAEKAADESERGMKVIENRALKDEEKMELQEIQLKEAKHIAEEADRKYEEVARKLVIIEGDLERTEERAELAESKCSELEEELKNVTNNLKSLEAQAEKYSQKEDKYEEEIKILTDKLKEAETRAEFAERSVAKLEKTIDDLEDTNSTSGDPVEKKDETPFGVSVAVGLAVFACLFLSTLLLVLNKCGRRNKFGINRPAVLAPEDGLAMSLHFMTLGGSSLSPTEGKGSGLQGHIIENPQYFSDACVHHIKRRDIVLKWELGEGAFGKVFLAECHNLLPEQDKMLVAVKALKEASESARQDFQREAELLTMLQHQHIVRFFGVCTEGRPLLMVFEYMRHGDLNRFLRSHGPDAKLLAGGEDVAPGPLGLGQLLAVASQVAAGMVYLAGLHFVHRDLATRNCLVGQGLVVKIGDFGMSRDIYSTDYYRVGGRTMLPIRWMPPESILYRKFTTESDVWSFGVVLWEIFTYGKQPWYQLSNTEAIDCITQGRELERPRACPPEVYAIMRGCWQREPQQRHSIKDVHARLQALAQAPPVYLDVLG
Chain of TPM3-TRKA fusion protein (Q96SW2 whole entry, the tested form may be a part): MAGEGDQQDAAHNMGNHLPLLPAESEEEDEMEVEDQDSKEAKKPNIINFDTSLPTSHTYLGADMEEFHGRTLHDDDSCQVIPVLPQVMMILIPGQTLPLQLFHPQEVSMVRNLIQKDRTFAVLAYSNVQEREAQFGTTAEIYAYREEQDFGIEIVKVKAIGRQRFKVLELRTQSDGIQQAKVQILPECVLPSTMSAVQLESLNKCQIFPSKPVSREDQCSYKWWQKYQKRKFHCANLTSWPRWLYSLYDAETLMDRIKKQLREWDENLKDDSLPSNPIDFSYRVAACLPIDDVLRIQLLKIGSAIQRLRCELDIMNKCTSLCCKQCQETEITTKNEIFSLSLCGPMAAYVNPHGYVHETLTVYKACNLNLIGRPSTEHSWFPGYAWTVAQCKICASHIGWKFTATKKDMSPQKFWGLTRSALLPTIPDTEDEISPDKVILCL
Chain of TPM3-TRKA fusion protein (Q16531 whole entry partner, the tested form may be a part): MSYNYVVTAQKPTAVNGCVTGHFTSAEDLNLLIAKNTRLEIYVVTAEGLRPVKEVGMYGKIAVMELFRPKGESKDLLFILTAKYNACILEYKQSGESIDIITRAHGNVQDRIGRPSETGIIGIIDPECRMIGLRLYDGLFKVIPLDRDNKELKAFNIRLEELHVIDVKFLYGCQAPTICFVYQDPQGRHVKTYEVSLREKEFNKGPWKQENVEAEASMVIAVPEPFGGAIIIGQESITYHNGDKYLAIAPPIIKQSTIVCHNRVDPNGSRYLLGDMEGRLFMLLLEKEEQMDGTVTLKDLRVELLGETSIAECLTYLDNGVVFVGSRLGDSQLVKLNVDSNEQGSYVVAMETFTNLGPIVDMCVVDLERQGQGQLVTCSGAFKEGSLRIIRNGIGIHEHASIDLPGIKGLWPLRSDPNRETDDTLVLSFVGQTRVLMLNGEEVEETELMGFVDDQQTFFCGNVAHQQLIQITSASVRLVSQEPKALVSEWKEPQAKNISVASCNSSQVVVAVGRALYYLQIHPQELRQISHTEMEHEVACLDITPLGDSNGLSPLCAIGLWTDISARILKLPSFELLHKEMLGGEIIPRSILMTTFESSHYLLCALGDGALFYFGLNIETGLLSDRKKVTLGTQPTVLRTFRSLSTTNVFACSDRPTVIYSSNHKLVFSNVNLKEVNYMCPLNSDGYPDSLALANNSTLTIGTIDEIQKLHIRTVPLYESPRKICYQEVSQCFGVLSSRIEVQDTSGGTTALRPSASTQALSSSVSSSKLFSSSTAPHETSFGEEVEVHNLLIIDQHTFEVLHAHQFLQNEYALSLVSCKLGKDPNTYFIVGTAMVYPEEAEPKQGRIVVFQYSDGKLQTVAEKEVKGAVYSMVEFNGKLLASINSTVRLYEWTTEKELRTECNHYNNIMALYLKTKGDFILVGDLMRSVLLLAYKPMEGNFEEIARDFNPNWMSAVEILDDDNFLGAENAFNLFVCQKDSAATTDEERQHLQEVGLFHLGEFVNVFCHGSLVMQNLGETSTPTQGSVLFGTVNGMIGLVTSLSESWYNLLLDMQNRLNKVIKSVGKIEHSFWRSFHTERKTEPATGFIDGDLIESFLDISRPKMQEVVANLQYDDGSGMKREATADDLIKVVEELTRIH

[2] = test system: monoiodoacetate-induced osteoarthritis; assay: Monoiodoacetate-induced osteoarthritis pain model in rats; type: in vivo, Sprague Dawley rats; conditions: 20 mg/kg i.p., single dose, 6 hours following treatment (FIG. 16A)
KM12 cells = assay: Cell viability assay (CellTiter-Glo) in KM12 cells; type: cell-based; conditions: Homo sapiens, 72 h; Table 3; KM12 cell viability, CellTiter-Glo, 3 days; read-out: IC50
[3] = Body weight of xenograft-bearing mice (toxicity); type: in vivo, Athymic nude mice; conditions: 10-20 mg/kg qd or bid via oral gavage (FIG. 15B)
Description: (§1) Athymic nude mice bearing KM12 subcutaneous xenograft tumors at the right flank were intraperitoneally treated with vehicle or 25 mg/kg CPD-060 once per day (qd), twice per day (bid), or once every two days (q2d). Tumor volumes were assessed every two days and expressed as length×width×width/2. Body weights of experimental mice were also measured to assess the toxicity of compounds.
(§2) Athymic nude mice bearing KM12 subcutaneous xenograft tumors at the right flank were treated with vehicle, 10-20 mg/kg TR-181 or TR-198 once per day (qd), or twice per day (bid) via oral gavage. Tumor volumes were assessed every two days and expressed as length×width×width/2. Body weights of experimental mice were also measured to assess the toxicity of compounds.
(§3) All animal experiments were performed under protocols approved by the Institutional Animal Care and Use Committee (IACUC) of Cullgen. Athymic nude mice (male, 5-weeks old) received 5 million KM12 cells subcutaneously inoculated at the right flank site. Ten days following inoculation, tumors were approximately 500 mm3 in size. Tumor-bearing mice were treated intraperitoneally with vehicle or bivalent compounds at indicated doses. Tumor sizes and body weight of mice were measured every 2 days. In addition, immunoblotting assays were employed to assess the levels of TRKA fusion proteins in xenograft tumors around 500 mm^3 in size following drug administration. At indicated hours after drug administration, selected mice were sacrificed, tumors were resected. Small chunks of tumors were homogenized for immunoblotting of TPM3-TPKA and other proteins as indicated.

[4] = test system: KM12 subcutaneous xenograft tumors; assay: KM12 subcutaneous xenograft tumor growth study; type: in vivo, Athymic nude mice; conditions: 10-20 mg/kg qd or bid via oral gavage (FIG. 15A)
Description: as §1, §2, §3

O=C1CCC(N2C(=O)c3ccc(NCCN4CCN(c5cccc(-c6cnc7ccc(N8CCC[C@@H]8c8cccc(F)c8)nn67)n5)CC4)cc3C2=O)C(=O)N1 (stereo partly drawn) [TR-181, 2-(2,6-dioxopiperidin-3-yl)-5-((2-(4-(6-(6-((R)-2-(3-fluorophenyl)pyrrolidin-1-yl)imidazo[1,2-b]pyridazin-3-yl)pyridin-2-yl)piperazin-1-yl)ethyl)amino)isoindoline-1,3-dione]
analgesic activity (percentage of weight born on the injured limb) [1]: significant analgesic activity | TPM3-TRKA degradation in KM12 subcutaneous tumors (TPM3-TRKA fusion protein): exhibited the activities to induce TPM3-TRKA degradation | analgesic activity (percentage of weight born on the injured limb) [2]: significant analgesic activity | pIC50 (KM12 cells): 8.47 | body weight [3]: without inducing substantial weight losses | growth of KM12 subcutaneous xenograft tumors [4]: significant in vivo anti-tumor activity; also recorded: significantly repressed the growth
